Like-named read-outs stand apart in the source and are kept apart here.
Columns and labels:
[1] = biological target: T1, wild-type human cardiac sodium channel, hNav1.5 (Homo sapiens, UniProt Q14524); assay: Peak INa screening assay (tonic block and use-dependent block); assay type: cell-based
Procedure, shortened: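 HEK293 cells stably expressing hNav1.5 (no beta subunits), automated whole-cell patch clamp at 23-25° C, 40 mM Na+ bath (choline substitution), pH 7.35. Compound at 1 or 3 μM, added twice then 200 s equilibration; tonic block by steps to −20 mV from −100 mV at 0.1 Hz, use-dependent block at pulse 50 of a 3 Hz train, rundown-corrected versus compound-free.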

[2] = biological target: T1, wild-type human cardiac sodium channel, hNav1.5; assay: Late INa screening assay (QPatch whole cell patch clamp, Tefluthrin-induced late current); assay type: cell-based; conditions: HEK293 hNav1.5, percent block of late INa
Procedure, shortened: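 HEK293 cells stably expressing hNav1.5 without beta subunits were whole-cell patch clamped at 23-25 °C, stepping from −120 to −20 mV for 250 ms at 0.1 Hz. Late current (240–265 ms) was induced with 10 μM Tefluthrin, and compounds were added typically at 0.3 or 1 μM. Percent block was taken against 0 Na baseline with rundown correction.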

[3] = tonic block of Peak INa, 0.1 Hz, holding -100 mV, read-out: Peak TB 3 uM
[4] = use-dependent block of Peak INa, 3 Hz, pulse 50, read-out: Peak UDB 3 Hz 3 uM

T1 sequence (Q14524 whole entry): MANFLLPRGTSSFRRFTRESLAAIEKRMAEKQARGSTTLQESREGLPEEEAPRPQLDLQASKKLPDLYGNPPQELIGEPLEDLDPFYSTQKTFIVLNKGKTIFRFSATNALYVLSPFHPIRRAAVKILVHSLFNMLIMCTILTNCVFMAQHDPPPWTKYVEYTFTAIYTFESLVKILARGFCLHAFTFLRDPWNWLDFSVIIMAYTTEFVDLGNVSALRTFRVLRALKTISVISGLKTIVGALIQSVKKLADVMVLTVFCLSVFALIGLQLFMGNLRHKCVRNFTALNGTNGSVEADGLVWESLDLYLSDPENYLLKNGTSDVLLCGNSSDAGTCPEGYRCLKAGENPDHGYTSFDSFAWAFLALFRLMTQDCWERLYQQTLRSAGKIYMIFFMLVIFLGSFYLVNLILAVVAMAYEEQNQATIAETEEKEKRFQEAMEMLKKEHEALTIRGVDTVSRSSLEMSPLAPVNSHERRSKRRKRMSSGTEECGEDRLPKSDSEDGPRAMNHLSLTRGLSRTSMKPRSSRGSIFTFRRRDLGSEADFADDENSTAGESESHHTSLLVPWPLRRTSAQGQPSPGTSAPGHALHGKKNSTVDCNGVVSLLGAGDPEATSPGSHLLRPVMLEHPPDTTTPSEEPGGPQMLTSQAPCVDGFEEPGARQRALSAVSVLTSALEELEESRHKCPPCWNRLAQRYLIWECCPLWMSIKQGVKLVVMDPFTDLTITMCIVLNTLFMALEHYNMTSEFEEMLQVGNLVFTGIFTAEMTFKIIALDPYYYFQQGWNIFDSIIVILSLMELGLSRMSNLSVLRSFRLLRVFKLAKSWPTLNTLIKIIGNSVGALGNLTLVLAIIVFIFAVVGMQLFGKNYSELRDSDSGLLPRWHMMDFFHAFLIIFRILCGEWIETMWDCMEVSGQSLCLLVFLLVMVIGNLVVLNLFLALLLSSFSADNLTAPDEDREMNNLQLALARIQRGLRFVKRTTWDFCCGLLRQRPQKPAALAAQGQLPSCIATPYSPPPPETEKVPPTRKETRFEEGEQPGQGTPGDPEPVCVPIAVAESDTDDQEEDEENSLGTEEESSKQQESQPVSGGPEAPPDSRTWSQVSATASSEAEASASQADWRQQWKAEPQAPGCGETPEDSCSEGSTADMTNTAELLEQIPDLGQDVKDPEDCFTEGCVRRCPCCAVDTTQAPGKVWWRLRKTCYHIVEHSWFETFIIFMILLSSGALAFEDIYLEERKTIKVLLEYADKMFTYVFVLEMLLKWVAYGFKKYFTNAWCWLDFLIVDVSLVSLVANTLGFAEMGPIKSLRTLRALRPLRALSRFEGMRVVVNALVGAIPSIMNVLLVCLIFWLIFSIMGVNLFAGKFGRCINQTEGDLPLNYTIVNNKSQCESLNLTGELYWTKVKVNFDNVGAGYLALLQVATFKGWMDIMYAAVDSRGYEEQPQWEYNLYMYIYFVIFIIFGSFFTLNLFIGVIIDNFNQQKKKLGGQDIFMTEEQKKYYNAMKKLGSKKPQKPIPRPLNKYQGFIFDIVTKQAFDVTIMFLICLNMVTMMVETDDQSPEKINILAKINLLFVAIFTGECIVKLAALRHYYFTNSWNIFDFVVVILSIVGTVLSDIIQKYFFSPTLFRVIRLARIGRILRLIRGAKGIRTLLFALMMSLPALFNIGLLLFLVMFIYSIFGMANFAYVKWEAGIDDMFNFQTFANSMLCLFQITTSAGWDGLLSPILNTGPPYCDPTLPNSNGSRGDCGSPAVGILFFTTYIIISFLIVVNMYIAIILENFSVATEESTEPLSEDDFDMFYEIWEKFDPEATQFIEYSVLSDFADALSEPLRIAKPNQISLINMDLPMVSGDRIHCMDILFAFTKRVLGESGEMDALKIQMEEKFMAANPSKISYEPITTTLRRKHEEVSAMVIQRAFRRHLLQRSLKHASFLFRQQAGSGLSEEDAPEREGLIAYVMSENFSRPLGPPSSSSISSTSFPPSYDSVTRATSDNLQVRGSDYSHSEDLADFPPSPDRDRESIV

`FC(F)(F)Oc1ccc(-c2ccc3onc(OCc4cnccn4)c3c2)cc1` [Example 151, 3-(pyrazin-2-ylmethoxy)-5-(4-(trifluoromethoxy)phenyl)benzo[d]isoxazole] gave an inhibition at 3 µM [1, 3] of 43.3%, an inhibition at 3 µM [1, 4] of under 5% and an inhibition at 0.3 µM [2] of 50.7%. The inhibition at 1 µM [2] was 70.1%.
`Cc1cc(-c2ccc3onc(OCc4ncccn4)c3c2)ccc1OC(F)(F)F` [Example 7, 5-(3-methyl-4-(trifluoromethoxy)phenyl)-3-(pyrimidin-2-ylmethoxy)benzo[d]isoxazole] was tested, and the inhibition at 3 µM [1, 3] was 16.3%, the inhibition at 3 µM [1, 4] was under 5% and the inhibition at 1 µM [2] was 47.5%.
`FC(F)(F)Oc1ccc(-c2ccc3onc(-n4cnc(Cl)c4)c3c2)cc1` [Example 140, 3-(4-chloro-1H-imidazol-1-yl)-5-(4-(trifluoromethoxy)phenyl)benzo[d]isoxazole] was tested, and the inhibition at 3 µM [1, 3] was 8.5%, the inhibition at 3 µM [1, 4] was under 5% and the inhibition at 1 µM [2] was 37.6%.
Compound `CC(=O)N1CCC[C@H]1COc1noc2ccc(-c3ccc(OC(F)(F)F)cc3)cc12` [Example 109, (S)-1-(2-(((5-(4-(trifluoromethoxy)phenyl)benzo[d]isoxazol-3-yl)oxy)methyl)pyrrolidin-1-yl)ethan-1-one] has an inhibition at 3 µM [1, 3] of 14.5%, an inhibition at 3 µM [1, 4] of under 5% and an inhibition at 0.3 µM [2] of 25.3%. For the same compound, the inhibition at 1 µM [2] was 65.7%.
With `FC(F)(F)Oc1ccc(-c2ccc3onc(OCCNc4ncccn4)c3c2)cc1` [Example 123, N-(2-((5-(4-(trifluoromethoxy)phenyl)benzo[d]isoxazol-3-yl)oxy)ethyl)pyrimidin-2-amine] the inhibition at 3 µM [1, 3] was 27.3%, the inhibition at 3 µM [1, 4] was under 5% and the inhibition at 1 µM [2] was 36.3%.
For `Cc1nccnc1COc1noc2ccc(-c3ccc(OC(F)(F)F)cc3)cc12` [Example 152, 3-((3-methylpyrazin-2-yl)methoxy)-5-(4-(trifluoromethoxy)phenyl)benzo[d]isoxazole], the inhibition at 3 µM [1, 3] was 30.6%, the inhibition at 3 µM [1, 4] was under 5% and the inhibition at 0.3 µM [2] was 19.8%. The inhibition at 1 µM [2] was 53.4%.
Work on `CC(C)(C)c1cn(-c2noc3ccc(-c4ccc(OC(F)(F)F)cc4)cc23)cn1` [Example 143, 3-(4-(tert-butyl)-1H-imidazol-1-yl)-5-(4-(trifluoromethoxy)phenyl)benzo[d]isoxazole] yielded an inhibition at 3 µM [1, 3] of 39.8%, an inhibition at 3 µM [1, 4] of 11.2% and an inhibition at 0.3 µM [2] of 35.9%. It also gave an inhibition at 1 µM [2] of 60.3%.
`Cc1ncn(-c2noc3ccc(-c4ccc(OC(F)(F)F)cc4)cc23)n1` [Example 141, 3-(3-methyl-1H-1,2,4-triazol-1-yl)-5-(4-(trifluoromethoxy)phenyl)benzo[d]isoxazole] was tested, and the inhibition at 3 µM [1, 3] was 17.8%, the inhibition at 3 µM [1, 4] was under 5% and the inhibition at 1 µM [2] was 38.6%.
Work on `FC(F)(F)Oc1ccc(-c2ccc3onc(OCc4cccnn4)c3c2)cc1` [Example 74, 3-(pyridazin-3-ylmethoxy)-5-(4-(trifluoromethoxy)phenyl)benzo[d]isoxazole] yielded an inhibition at 3 µM [1, 3] of 23.5%, an inhibition at 3 µM [1, 4] of under 5% and an inhibition at 0.3 µM [2] of 15.7%. The inhibition at 1 µM [2] was 60.9%.
`C[C@@H](N)COc1noc2ccc(-c3ccc(OC(F)(F)F)cc3)cc12` [Example 117, (R)-1-((5-(4-(trifluoromethoxy)phenyl)benzo[d]isoxazol-3-yl)oxy)propan-2-amine] was tested, and the inhibition at 3 µM [1, 3] was 79.3%, the inhibition at 3 µM [1, 4] was 60.8% and the inhibition at 0.3 µM [2] was 39.4%. It also gave an inhibition at 1 µM [2] of 78.1%.
`Cc1cnc(COc2noc3ccc(-c4ccc(OC(F)(F)F)cc4)cc23)cn1` [Example 73, 3-((5-methylpyrazin-2-yl)methoxy)-5-(4-(trifluoromethoxy)phenyl)benzo[d]isoxazole] showed an inhibition at 3 µM [1, 3] of 41.9%, an inhibition at 3 µM [1, 4] of under 5% and an inhibition at 0.3 µM [2] of 20.4%. The inhibition at 1 µM [2] was 66.2%.
Work on `Cc1cc(-c2ccc(OC(F)(F)F)cc2)cc2c(OCc3nnc(C4CC4)o3)noc12` [Example 105, 3-((5-cyclopropyl-1,3,4-oxadiazol-2-yl)methoxy)-7-methyl-5-(4-(trifluoromethoxy)phenyl)benzo[d]isoxazole] yielded an inhibition at 3 µM [1, 3] of 9.4%, an inhibition at 3 µM [1, 4] of 27.8% and an inhibition at 1 µM [2] of 53.7%.
`O=C1OCCN1CCOc1noc2ccc(-c3ccc(OC(F)(F)F)cc3)cc12` [Example 75, 3-(2-((5-(4-(trifluoromethoxy)phenyl)benzo[d]isoxazol-3-yl)oxy)ethyl)oxazolidin-2-one] showed an inhibition at 3 µM [1, 3] of 36.9%, an inhibition at 3 µM [1, 4] of under 5% and an inhibition at 0.3 µM [2] of 29.3%. The inhibition at 1 µM [2] was 59.5%.
For `FC(F)(F)Oc1ccc(-c2ccc3onc(OCc4ncco4)c3c2)cc1` [Example 53, 3-(oxazol-2-ylmethoxy)-5-(4-(trifluoromethoxy)phenyl)benzo[d]isoxazole], the inhibition at 3 µM [1, 3] was 43.4%, the inhibition at 3 µM [1, 4] was under 5% and the inhibition at 0.3 µM [2] was 31.1%. For the same compound, the inhibition at 1 µM [2] was 57%.
For `FC(F)(F)Oc1ccc(-c2ccc3onc(-n4cnc(C(F)(F)F)c4)c3c2)cc1` [Example 145, 5-(4-(trifluoromethoxy)phenyl)-3-(4-(trifluoromethyl)-1H-imidazol-1-yl)benzo[d]isoxazole], the inhibition at 3 µM [1, 3] was 93%, the inhibition at 3 µM [1, 4] was under 5% and the inhibition at 0.3 µM [2] was 61.7%. The inhibition at 1 µM [2] was 84.9%.
`Cc1nnc(COc2noc3ccc(-c4ccc(OC(F)(F)F)cc4)cc23)o1` [Example 99, 3-((5-methyl-1,3,4-oxadiazol-2-yl)methoxy)-5-(4-(trifluoromethoxy)phenyl)benzo[d]isoxazole] showed an inhibition at 3 µM [1, 3] of 55.6%, an inhibition at 3 µM [1, 4] of under 5% and an inhibition at 0.3 µM [2] of 42.3%. The inhibition at 1 µM [2] was 72.3%.
In the case of `Cc1nnc(COc2noc3c(F)cc(-c4ccc(OC(F)(F)F)cc4)cc23)o1` [Example 155, 7-fluoro-3-((5-methyl-1,3,4-oxadiazol-2-yl)methoxy)-5-(4-(trifluoromethoxy)phenyl)benzo[d]isoxazole], the inhibition at 3 µM [1, 3] was 24.8%, the inhibition at 3 µM [1, 4] was 8.4% and the inhibition at 0.3 µM [2] was 47%. It also gave an inhibition at 1 µM [2] of 69.2%.
`CC(C)(C)OC(=O)COc1noc2ccc(-c3ccc(OC(F)(F)F)cc3)cc12` [Example 157, tert-butyl 2-((5-(4-(trifluoromethoxy)phenyl)benzo[d]isoxazol-3-yl)oxy)acetate] gave an inhibition at 3 µM [1, 3] of 15.6%, an inhibition at 3 µM [1, 4] of under 5% and an inhibition at 1 µM [2] of 36.9%.
For `FC(F)(F)Oc1ccc(-c2ccc3onc(-n4ccnc4)c3c2)cc1` [Example 132, 3-(1H-imidazol-1-yl)-5-(4-(trifluoromethoxy)phenyl)benzo[d]isoxazole], the inhibition at 3 µM [1, 3] was 20.6%, the inhibition at 3 µM [1, 4] was 5.1% and the inhibition at 1 µM [2] was 40.5%.
`O=C1CCCN1CCNc1noc2ccc(-c3ccc(OC(F)(F)F)cc3)cc12` [Example 135, 1-(2-((5-(4-(trifluoromethoxy)phenyl)benzo[d]isoxazol-3-yl)amino)ethyl)pyrrolidin-2-one] was tested, and the inhibition at 3 µM [1, 3] was 29.3%, the inhibition at 3 µM [1, 4] was 18% and the inhibition at 0.3 µM [2] was 19.7%. The inhibition at 1 µM [2] was 48.8%.
In the case of `FC(F)(F)Oc1ccc(-c2ccc3onc(NCCn4cncn4)c3c2)cc1` [Example 137, N-(2-(1H-1,2,4-triazol-1-yl)ethyl)-5-(4-(trifluoromethoxy)phenyl)benzo[d]isoxazol-3-amine], the inhibition at 3 µM [1, 3] was 43.9%, the inhibition at 3 µM [1, 4] was 17.4% and the inhibition at 1 µM [2] was 47.2%.
`FC(F)(F)Oc1ccc(-c2ccc3onc(OCc4nnc(C5CC5)s4)c3c2)cc1` [Example 154, 3-((5-cyclopropyl-1,3,4-thiadiazol-2-yl)methoxy)-5-(4-(trifluoromethoxy)phenyl)benzo[d]isoxazole] gave an inhibition at 3 µM [1, 3] of 7.68%, an inhibition at 3 µM [1, 4] of under 5% and an inhibition at 1 µM [2] of 39.2%.
